Test: Human HepG2 cell viability assay in 384 well format
Format: toxicity, cell-based
Parameters: dose 125 nL, time 70.5 hour; concentration not given beside the values
Conditions: HepG2 cells, read-out: Inhibition

In order of falling cytotoxicity at 70.5 h:
1. CN(C)C(=O)C1CCCN(C(=O)c2ccccc2-n2cc(CN)cn2)C1 (stereo not given)  48.5%
2. Cc1cc(N(C)C)nc(C2(C)CCNCC2)n1  46.3%
3. Nc1nccnc1CC1CCCN(Cc2ccnc3ccccc23)C1 (stereo not given)  27.7%
4. CC1CCC(NS(=O)(=O)CC(=O)NC(C2CC2)C2CC2)CC1 (stereo not given)  23.5%
5. CC(=O)N1CCCC1c1nc(N(C)C)ncc1-c1ccccc1 (stereo not given)  23.2%
6. COCCN(Cc1ccco1)c1ncc(C#N)cc1Cl  20.3%
7. Cc1cncnc1C1CCN(CC2CC2)CC1  19.8%
8. Cc1c(Cl)cccc1NC(=O)c1nc[nH]n1  19.3%
9. Cc1cc(N(C)C)nc(C2(C)CCCNC2)n1 (stereo not given)  18.9%
10. CN(Cc1c(F)cccc1Cl)C(=O)c1cnn(CCN2CCCCC2)c1  18.7%
11. CC(C)c1ncc2c(n1)CN(c1ncnc3[nH]ccc13)CC2  17.1%
12. CN1CCC(C(=O)N2CCC(=Cc3cccc(F)c3)CC2)CC1=O (stereo not given)  16.2%
13. CC(SCCC(=O)NC(N)=O)c1cccc(F)c1 (stereo not given)  15.9%
14. CC(=O)NCC(=O)N1CCOC(c2cccc(N)n2)C1 (stereo not given)  15.3%
15. Cc1noc(C)c1CCC(=O)N1CCOCC1CCc1cnccn1 (stereo not given)  14%
16. Cc1cc(CNC(=O)c2cc(NC(=O)C(C)C)ccc2Cl)no1  13.5%
17. CC(NC(N)=O)C(=O)N(C)Cc1cccc(C(F)(F)F)c1 (stereo not given)  10.7%
18. Cc1ccnc(NC(=O)c2c(C)oc(C)c2C)c1  9.9%
19. CN(C)CCNC(=O)c1sc2ccccc2c1C1CCC(CN)CC1 (stereo not given)  8.65%
20. Cc1ccc(S(=O)(=O)N2CCC(c3n[nH]cc3C(=O)N(C)C)CC2)cc1  8.18%
21. c1c[nH]c(CN2CCCC(Cc3ccc(NC4CCCC4)nn3)C2)n1 (stereo not given)  7.73%
22. CC1COCCN1C(=O)c1cnccn1 (stereo not given)  7.55%
23. CC(=O)N1CCOC(c2cncc(CCC(N)=O)n2)C1 (stereo not given)  7.13%
24. CCCc1noc(C(C)N2CC(n3cccn3)C2)n1 (stereo not given)  6.9%
25. CCC(C)(C)C1CCCN1C(=O)c1coc(S(=O)(=O)NC)c1 (stereo not given)  6.9%
26. Cn1cccc1CNCC1CCCn2cc(C(C)(C)C)nc21 (stereo not given)  5.68%
27. NCC(=O)N1CCCC(O)(CN2CCN(c3ccccc3)CC2)CC1 (stereo not given)  4.71%
28. O=C(CN1CCCC(c2noc(C3CC3)n2)C1)N1CCCC1 (stereo not given)  4.7%
29. CN1CCOC(C(=O)Nc2nc(-c3ccc(Cl)cc3)n[nH]2)C1 (stereo not given)  4.4%
30. Cc1ccn(Cc2nc(C(C)OCC(C)C)no2)c(=O)c1 (stereo not given)  3.64%
31. Cc1nc(CCCNC(=O)c2c(F)cccc2Br)n[nH]1  3.62%
32. CC(O)CCN(C)C(=O)Nc1cc(F)cc(Br)c1 (stereo not given)  1.72%
33. CCNC(=O)C1CCCN(c2ccc3ccc(F)cc3n2)C1 (stereo not given)  0.815%
34. NC(=O)c1cnn2c1NCC(CNCC1(c3ccccc3)CCCC1)C2 (stereo not given)  0.136%
35. Cc1ccccc1S(=O)(=O)Cc1nsc(N(C)C)n1  0.131%
36. Nc1nccnc1CC1CCCN(Cc2cccc3[nH]ccc23)C1 (stereo not given)  0.122%
37. CN1CCCC(N(C)C(=O)c2ccc(NC(=O)c3ccc[nH]3)cc2)C1 (stereo not given)  -0.19%
38. Cc1nc(C2CCCN(S(C)(=O)=O)C2)sc1Br (stereo not given)  -0.507%
39. Cc1cc(C2CCCN2C(=O)CN2CCc3ccccc32)on1 (stereo not given)  -0.619%
40. Cc1ccc(OCCN(C)S(=O)(=O)N2CCOCC2)cc1  -0.648%
41. Cc1cc(CN2CCc3nc(N4CCOCC4)nc(O)c3CC2)c(C)s1  -0.651%
42. CN1CCC(c2nccnc2Nc2cnccn2)CC1  -0.843%
43. CC(C)N1C(=O)CN(CCOCCO)CC1(C)C  -1.37%
44. Cc1cnn(CC2CN(c3ncnc4c3CCC4)CCO2)c1 (stereo not given)  -1.52%
45. COCC(=O)N1CCC(O)(CN2CCN(c3ccccc3)CC2)C1 (stereo not given)  -1.6%
46. CC(C)c1nccn1-c1cncc(C2CCCN2Cc2cccnc2)n1 (stereo not given)  -1.69%
47. Cc1ccc(C2CN(CCS(=O)(=O)C(C)C)CCO2)c(C)c1 (stereo not given)  -1.77%
48. CN(C)C(=O)c1c[nH]nc1C1CCN(S(=O)(=O)c2ccccc2)CC1  -1.91%
49. Cc1cc(C)nc(N2CCC(C(=O)Nc3ccc(C(C)C)cc3)CC2)n1  -2.09%
50. O=C(COCC1CC1)Nc1cc(S(=O)(=O)NC2CC2)ccc1F  -2.2%
51. CCc1ncnc(N2CCOCC2CCO)c1F (stereo not given)  -2.27%
52. CCN(C)S(=O)(=O)N1CCC(C(O)c2ccc(F)cc2)CC1 (stereo not given)  -2.3%
53. CCNC(=O)CNC(=O)c1nc(C2CC2)n(-c2ccccc2Cl)n1  -2.36%
54. CCN(CC)C(CNC(=O)CCc1nc(C(C)C)no1)c1ccco1 (stereo not given)  -2.56%
55. c1ccc(C2(NCC3CNc4ccnn4C3)CCC2)cc1 (stereo not given)  -2.65%
56. COc1ccc(S(=O)(=O)NC(=O)C(C)OC)c(OC)c1 (stereo not given)  -2.74%
57. CCOc1no[n+]([O-])c1-c1ccccc1  -3.07%
58. CNc1ccc(CC2CCCN(Cc3c[nH]cn3)C2)nn1 (stereo not given)  -3.24%
59. COCCC(=O)N1CCC(c2ncncc2-c2ccnc(N)c2)C1 (stereo not given)  -3.28%
60. COc1ccc(-n2cc(CNC(=O)c3cc[nH]n3)nn2)cc1  -3.5%
61. N#Cc1ccc(Cl)cc1N1CCC(OC2CCOCC2)CC1  -3.88%
62. O=C(Nc1cc[nH]n1)c1ccc(COCC(F)(F)F)cc1  -4%
63. CC1CCN(S(=O)(=O)NC(C)Cc2ccco2)CC1 (stereo not given)  -4.62%
64. Cc1ccc(CN2CCc3nc(C(C)C)nc(O)c3CC2)s1  -4.74%
65. Cc1ccnc2c1NC(=O)CN2C(=O)CCc1cccs1  -5.29%
66. Cc1cc(C(=O)NC2CCCOc3cc(Cl)ccc32)n(C)n1 (stereo not given)  -5.69%
67. O=C(N[C@@H]1CC[C@@H](N2CCCC2)[C@@H]1O)c1cc2ccccc2[nH]1  -5.76%
68. O=C(Nc1ccccn1)c1cncc(C2CCNCC2)n1  -6.06%
69. CCC(CC)c1cc(C(=O)N2CCN(C(C#N)C(C)C)CC2)on1 (stereo not given)  -6.08%
70. COc1ccc(OCCN(C)S(=O)(=O)N2CCOCC2)cc1  -6.12%
71. Cc1nc(C)n(CC2CCCN2Cc2cn3ccccc3c2C#N)n1 (stereo not given)  -6.14%
72. CC(Cc1ccco1)NS(=O)(=O)N1CCCCC1 (stereo not given)  -6.18%
73. Cc1ccc(S(=O)(=O)Cc2nsc(N(C)C)n2)c(C)c1  -6.24%
74. CS(=O)(=O)NC(c1ccccc1)c1ccc2c(c1)CCCO2 (stereo not given)  -6.34%
75. Cc1ccccc1CCCN1CCS(=O)(=O)CC1C (stereo not given)  -6.59%
76. Cc1cccc(OCCCNC(=O)Cn2ccc(C)cc2=O)c1  -6.82%
77. CSc1ccsc1C(=O)NCCNC(=O)C1CC1  -6.91%
78. CC1CCC(NS(=O)(=O)CC(=O)NC2(C(N)=O)CCCC2)CC1 (stereo not given)  -7.07%
79. CC(C)Cc1nc(CS(=O)(=O)C(C)C(=O)N2CCOCC2)no1 (stereo not given)  -7.75%
80. Cc1cc(N2CCC(Cc3cnccn3)C2)ncn1 (stereo not given)  -7.8%
81. Cc1cc(N(C)C)nc(N(C)Cc2csc(C)n2)n1  -7.95%
82. CC(C(=O)N1CCCC1)S(=O)(=O)Cc1nc(C(C)(C)C)no1 (stereo not given)  -8.31%
83. O=C(COc1cc(Cl)cc(Cl)c1)NCc1nncn1C1CC1  -8.34%
84. O=C(NCc1nnc2ccccn12)N1CCOC(c2cccs2)C1 (stereo not given)  -8.39%
85. COc1ccccc1C(N)CC(C)C (stereo not given)  -8.84%
86. CS(=O)(=O)c1ccc(NC(=O)NC2(c3ccccc3)CCC2)cc1  -8.88%
87. Cc1cccc(OCCNC(=O)Cn2ccc(C)cc2=O)c1  -8.95%
88. CC(O)CCN(C)C(=O)Nc1cccc(F)c1 (stereo not given)  -8.99%
89. CC(CO)NS(=O)(=O)c1cccc(C(C)C)c1 (stereo not given)  -9%
90. O=S(=O)(CCCn1cncn1)Cc1cccc(F)c1  -9.13%
91. CC(C)(NC(=O)NCc1cccc(Br)c1)C(=O)O  -9.51%
92. CCCOc1ccccc1C(N)CC(C)C (stereo not given)  -9.52%
93. CC(C(=O)N1CCOCC1)S(=O)(=O)Cc1nc(C(C)(C)C)no1 (stereo not given)  -9.65%
94. COCCOc1ccc(CNC2CCc3ncnn3C2)cc1OC (stereo not given)  -9.82%
95. NC(=O)c1cn[nH]c1C1CCCN1C(=O)c1cnccn1 (stereo not given)  -10.1%
96. Cc1ccc(C2CSCCN2C(=O)NCc2cccnc2)cc1 (stereo not given)  -10.1%
97. CC(C)C(C(=O)N(C)C)c1cccc(Cl)c1 (stereo not given)  -11%
98. CC(C)C(NC(=O)Cc1ccccc1)C(=O)NCc1ccc(O)nc1 (stereo not given)  -11.4%
99. CC(C)C(C)N(C(=O)Cn1nc2n(c1=O)CCCCC2)C1CC1 (stereo not given)  -11.4%
100. CCN(CC(=O)NC(C)(C)C)Cc1cccc2c1OCCO2  -11.6%
101. CCC(=O)NC(c1ccc(C)cc1)c1cccc(S(C)(=O)=O)c1 (stereo not given)  -11.9%
102. NC(=O)CCC1CCCN(c2ccnc3cc(F)ccc23)C1 (stereo not given)  -12.1%
103. CC(CNC(=O)CCCc1ccccn1)c1ccsc1 (stereo not given)  -12.4%
104. Cc1cc(C(=O)Nc2cc(C3CC3)n[nH]2)c2c(C)nn(C)c2n1  -12.4%
105. Cc1nc(C)c(S(=O)(=O)NC(=O)c2ccoc2)s1  -13%
106. CCCc1nc(CN(CCO)Cc2cc(Br)ccc2F)no1  -13.1%
107. CCS(=O)(=O)CCCN1CCSCC1c1ccc(Cl)cc1 (stereo not given)  -13.2%
108. COCc1nc(C(=O)NS(=O)(=O)c2ccc(OC)c(C)c2)cs1  -13.2%
109. CC1CCC(NS(=O)(=O)CC(=O)NCC2CCC2)CC1 (stereo not given)  -13.2%
110. COc1ccc(OC)c(S(=O)(=O)NC(=O)C(C)OC)c1 (stereo not given)  -13.3%
111. Cc1ccnc2c1NC(=O)CN2C(=O)CCc1ccccc1  -13.4%
112. O=C(NC1CCCOc2cc(Cl)ccc21)c1ccc(=O)[nH]n1 (stereo not given)  -13.7%
113. Cc1nc(C)c(S(=O)(=O)NC(=O)c2sccc2C)s1  -14.3%
114. O=C(NCc1nnc2ccccn12)N1CCOC(c2ccsc2)C1 (stereo not given)  -14.6%
115. Cc1c(Br)cccc1NC(=O)N(C)CCO  -14.7%
116. CC(=O)N1Cc2ccccc2C[C@H]1C(=O)N(C)Cc1ccccn1  -14.8%
117. CCS(=O)(=O)CC(C)N(C)C(=O)COc1ccccc1C#N (stereo not given)  -15.4%
118. COCCN(CCOC)c1ncc(C#N)cc1Cl  -15.8%
119. CC(c1ccccc1)N(C)C(=O)CN1CCN(c2cnccn2)CC1 (stereo not given)  -16.2%
120. COc1ccc(-n2cc(CNC(=O)c3cscn3)nn2)cc1  -17.7%

From ChEMBL document CHEMBL3507680, “University of Dundee, Gates Library screen for HepG2 cell viability”
